PubChem BioAssay (NCI)
Values joined by “and” are separate entries in the source; they are usually repeats but may differ in a detail not shown here. Equal entries are not always repeated.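 How tested: cells in 96-well plates exposed to compound for 48 hours at five concentrations. The concentration for 50% growth inhibition is given as GI50. The concentration for full growth arrest is given as TGI.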

How the values were obtained:
Assay in all cases: NCI tumour cell line growth inhibition, 48 h
HOP-18 NSCLC = tested on: HOP-18 NSCLC
DMS 114 small cell lung = tested on: DMS 114 small cell lung
SNB-78 CNS = tested on: SNB-78 CNS
KM20L2 colon = tested on: KM20L2 colon
MDA-N = tested on: MDA-N
XF 498 CNS = tested on: XF 498 CNS
LXFL 529 NSCLC = tested on: LXFL 529 NSCLC
RXF-631 renal = tested on: RXF-631 renal
DMS 273 small cell lung = tested on: DMS 273 small cell lung
SN12K1 renal = tested on: SN12K1 renal
P388 leukemia = tested on: P388 leukemia

Row | Compound | TGI (HOP-18 NSCLC) [µM] | TGI (DMS 114 small cell lung) | TGI (SNB-78 CNS) | TGI (KM20L2 colon) [µM] | TGI (XF 498 CNS) | TGI (LXFL 529 NSCLC) [µM] | TGI (RXF-631 renal) [µM] | TGI (DMS 273 small cell lung) [µM] | also measured
1 | CC(=O)[CH-]C(=O)Nc1ccccc1.CC(=O)[CH-]C(=O)Nc1ccccc1.CC[O-].CC[O-].[Ti+4] | > 100 | > 100 µM | > 100 µM | > 100 | – | – | – | – | GI50 (HOP-18 NSCLC): > 100 µM; GI50 (DMS 114 small cell lung): > 100 µM; GI50 (SNB-78 CNS): > 100 µM; GI50 (KM20L2 colon): > 100 µM
2 | Cn1nnc2c(C(N)=O)ncn2c1=O | > 100 | > 100 µM | > 100 µM | > 100 | > 100 µM | > 100 | – | – | TGI (MDA-N): > 100 µM
3 | CN1CCc2c1nc(-c1cccnc1)c1c2N(C)CC1 | > 100 | > 100 µM | > 100 µM | > 100 | > 100 µM | > 100 | > 100 | > 100 | –
4 | N.N.N.N.N.O=S(=O)([O-])C(F)(F)F.O=S(=O)([O-])C(F)(F)F.[Os+8] | – | – | 77.6 µM | 45.3 | – | 23.8 | – | – | GI50 (SNB-78 CNS): 6.19 µM; GI50 (KM20L2 colon): 20.7 µM; GI50 (LXFL 529 NSCLC): 9.12 µM
5 | COC(=O)C#CCC1CCCC1C1SCCS1 (stereo not drawn) | > 100 | > 100 µM | > 100 µM | > 100 | > 100 µM | > 100 | > 100 | > 100 | –
6 | O=C(N/C(=C\c1cc(Cl)ccc1Cl)c1nc2ccc(Cl)cc2[nH]1)c1ccccc1 | – | 29.8 µM | 54.8 µM | 32.2 | – | 28.1 | – | – | –
7 | NCCC(=O)NC(Cc1cnc[nH]1)C(=O)O (stereo not drawn) | – | – | – | – | – | – | – | – | TGI (MDA-N): > 100 µM
8 | CCN(CC)CCCC(C)Nc1c(Sc2cnc3cc(Cl)ccc3c2NC(C)CCCN(CC)CC)cnc2cc(Cl)ccc12 (stereo not drawn) | 4.49 | – | 4.74 µM | 3.09 | – | 3.38 | 4.48 | 3.17 | –
9 | COc1cccc2c1[C@H]1CO[C@H]3C4C[C@H](C(=O)O)C([C@@H](C2)N13)N4C (stereo partly drawn) | > 27.5 | 4.66 µM and 0.803 µM | 9.27 µM and > 30.5 µM | 7.84 | 4.19 µM and 1.5 µM | 4.98 | – | 1.31 | GI50 (HOP-18 NSCLC): 1.13 µM; GI50 (DMS 114 small cell lung): 0.187 µM; TGI (MDA-N): 0.406 µM; GI50 (SNB-78 CNS): 0.388 µM; GI50 (DMS 273 small cell lung): 0.516 µM; TGI (SN12K1 renal): 8.4 µM; GI50 (XF 498 CNS): 0.632 µM; TGI (P388 leukemia): 5.25 µM
10 | CCCCc1c2c(nc3c1CCc1cc4cc5c(nc4nc1-3)-c1nc3c(c(CCCC)c1CC5)CCC/C3=C\c1ccccc1)/C(=C/c1ccccc1)CCC2 | – | > 100 µM | > 100 µM | > 100 | – | > 100 | – | > 100 | –
11 | O=C(COc1ccc(Cl)cc1)N1CCN(C(=O)COc2ccc(Cl)cc2)c2ccccc21 | > 100 | > 100 µM | > 100 µM | > 100 | > 100 µM | > 100 | – | > 100 | –
12 | COc1ccc(-c2onc(-c3c(C)cc(C)cc3C)c2C2=NCCN2)cc1 | > 100 | – | > 100 µM | > 100 | – | > 100 | > 100 | – | –
13 | CCN(CC)C(=O)COc1cc2c(O)c3c(O)c(C)c4c(c13)C(=O)C(C)(OC=CC(OC)C(C)C(OC(C)=O)C(C)C(O)C(C)C(O)C(C)C=CC=C(C)C(=O)N2)O4 (stereo not drawn) | – | – | – | – | – | – | – | – | TGI (MDA-N): > 100 µM
14 | CC(=O)NNc1nc(C)c(C(=O)/C=C/c2ccc(/C=C/C(=O)c3sc(NNC(C)=O)nc3C)cc2)s1 | – | > 100 µM | > 100 µM | – | > 100 µM | > 100 | > 100 | > 100 | –
15 | C#C[C@H]1CCCCCC1O (stereo partly drawn) | > 100 | > 100 µM | > 100 µM | > 100 | > 100 µM | > 100 | > 100 | > 100 | –
16 | Nc1cc2cccc[n+]2c2cccc(Cl)c12 | – | – | – | – | – | – | – | – | GI50 (MDA-N): 21.3 µM; TGI (MDA-N): 61.5 µM
17 | Cc1nc2c(sc(=S)n2-c2ccccc2)c2nc3ccccc3n12 | > 100 | > 100 µM | > 100 µM | – | – | > 100 | > 100 | > 100 | –
